Earlier results, collected in patent US20120157536A1, “COMPOSITION FOR TRANSDERMAL ADMINISTRATION OF NON-STEROIDAL ANTI-FLAMMATORY DRUG” (Polytherapeutics, Inc., priority 2010, published 2012).

Question: For `O=C(O)Cc1ccccc1Nc1c(Cl)cccc1Cl` [Diclofenac, 2-(2,6-dichloro-anilino)-benzeneacetic acid], which “Diclofenac Clearance, Cl” value (Goodman & Gilman) is on record?
Answer: 252 mL/h/kg

Question: What about the “Minimum effective diclofenac blood concentration” value (Nishihata et al. 1988) of the same compound?
Answer: 50 ng/mL
